Source: US12404244B2, “Pan-KIT kinase inhibitor having quinoline structure and application thereof” (Tarapeutics Science Inc., priority 2018, dated 2025)

Tests used:
Type in all cases: cell-based
TEL-KIT/S709F-BaF3 = test: Proliferation of TEL-KIT/S709F-BaF3 cells (CCK-8); conditions: Mus musculus; 72 hours, CCK-8; read-out: GI50 TEL-KIT/S709F-BaF3
From the text: (§1) Compounds as provided herein were further evaluated for their inhibitory effects on proliferation of cancer cells by testing their effects on growth of cancer cells. In this example the following cells were used: primary mouse B cells BaF3 (purchased from ATCC), GIST-T1 cells of the human gastrointestinal stromal tumor cell line (expressing wild-type KIT gene) (purchased from Cosmo Bio Co., Ltd. (Japan)). The present lab further constructed and used the following: mouse Tel-Kit-BaF3 (stably expressing KIT wild-type kinase), mouse Tel-Kit/T670I-BaF3 (stably expressing KIT T670I mutant kinase), mouse Tel-Kit/V559A-BaF3 (stably expressing KIT V559A mutant kinase), mouse Tel-Kit/V559D-BaF3 (stably expressing KIT V559D mutant kinase), mouse Tel-Kit/V559G-BaF3 (stably expressing KIT V559G mutant kinase), mouse Tel-Kit/V560D-BaF3 (stably expressing KIT V560D mutant kinase), mouse Tel-Kit/L576P-BaF3 (stably expressing KIT L576P mutant kinase), mouse Tel-Kit/V654A-BaF3 (stably expressing KIT V654A mutant kinase), mouse Tel-Kit/V654A/V559D-BaF3 (stably expressing KIT V654A V559D mutant kinase), mouse Tel-Kit/T670E-BaF3 (stably expressing KIT T670E mutant kinase), mouse Tel-Kit/T670I/V559D-BaF3 (stably expressing KIT T670I V559D mutant kinase), mouse Tel-Kit/S709F-BaF3 (stably expressing KIT S709F mutant kinase), mouse Tel-Kit/D816E-BaF3 (stably expressing KIT D816E mutant kinase), mouse Tel-Kit/D816H-BaF3 (stably expressing KIT D816H mutant kinase), mouse Tel-Kit/D820E-BaF3 (stably expressing KIT D820E mutant kinase), mouse Tel-Kit/D820G-BaF3 (stably expressing KIT D820G mutant kinase), mouse Tel-Kit/D820Y-BaF3 (stably expressing KIT D820Y mutant kinase), mouse Tel-Kit/N822K-BaF3 (stably expressing KIT N822K mutant kinase), mouse Tel-Kit/Y823D-BaF3 (stably expressing KIT Y823D mutant kinase), mouse Tel-Kit/A829P-BaF3 (stably expressing KIT A829P mutant kinase), GIST-T1-T670I cells of the human gastrointestinal stromal tumor cell line (expressing KIT-T670I mutant gene). The above cell lines were constructed by: amplifying respectively the sequences of human KIT and various mutant kinase regions of KIT via PCR, inserting the fragments respectively into MSCV-Puro vectors having a N-terminal TEL fragment and/or a NPM fragment and/or a TPR fragment (purchased from Clontech), transfecting mouse BaF3 cells with the vectors by means of retrovirus to obtain stably transfected cells, removing the growth factor IL-3, and thereby eventually obtaining cell lines that depend on the transferred protein KIT or various mutants of KIT. […]

TEL-KIT/D816E-BaF3 = test: Proliferation of TEL-KIT/D816E-BaF3 cells (CCK-8); conditions: Mus musculus; 72 hours, CCK-8; read-out: GI50 TEL-KIT/D816E-BaF3
From the text: as §1

TEL-KIT/D816H-BaF3 = test: Proliferation of TEL-KIT/D816H-BaF3 cells (CCK-8); conditions: Mus musculus; 72 hours, CCK-8; read-out: GI50 TEL-KIT/D816H-BaF3
From the text: as §1

TEL-KIT/D820E-BaF3 = test: Proliferation of TEL-KIT/D820E-BaF3 cells (CCK-8); conditions: Mus musculus; 72 hours, CCK-8; read-out: GI50 TEL-KIT/D820E-BaF3
From the text: as §1

TEL-KIT/A829P-BaF3 = test: Proliferation of TEL-KIT/A829P-BaF3 cells (CCK-8); conditions: Mus musculus; 72 hours, CCK-8; read-out: GI50 TEL-KIT/A829P-BaF3
From the text: as §1

GIST-T1 = test: Proliferation of GIST-T1 cells (CCK-8); conditions: Homo sapiens, GISTT1; 72 hours, CCK-8; read-out: GI50 GIST-T1
From the text: as §1, with “gene).” for “gene). The above cell lines were constructed by: amplifying respectively the sequences of human KIT and various mutant kinase regions of KIT via PCR, inserting the fragments respectively into MSCV-Puro vectors having a N-terminal TEL fragment and/or a NPM fragment and/or a TPR fragment (purchased from Clontech), transfecting mouse BaF3 cells with the vectors by means of retrovirus to obtain stably transfected cells, removing the growth factor IL-3, and thereby eventually obtaining cell lines that depend on the transferred protein KIT or various mutants of KIT.”
(§2) The cells after incubation were detected using CCK-8 (purchased from MedChem Express, Shanghai, China) cell viability assay kit (CCK-8 may be reduced by dehydrogenase in living cells to a highly water-soluble yellow formazan product, and the amount of the resultant formazan is proportional to the number of living cells), the number of living cells were quantified with a microplate reader, and GI50 of the compounds and the control compounds were calculated (the results shown in Table 2 and Table 3).

GIST-T1/T670I = test: Proliferation of GIST-T1/T670I cells (CCK-8); conditions: Homo sapiens, GISTT1; 72 hours, CCK-8; read-out: GI50 GIST-T1/T670I
From the text: as §1, with “gene).” for “gene). The above cell lines were constructed by: amplifying respectively the sequences of human KIT and various mutant kinase regions of KIT via PCR, inserting the fragments respectively into MSCV-Puro vectors having a N-terminal TEL fragment and/or a NPM fragment and/or a TPR fragment (purchased from Clontech), transfecting mouse BaF3 cells with the vectors by means of retrovirus to obtain stably transfected cells, removing the growth factor IL-3, and thereby eventually obtaining cell lines that depend on the transferred protein KIT or various mutants of KIT.”
as §2

Compound: COc1cc2nccc(Oc3ccc(NC(=O)Cc4ccc(Cl)c(C(F)(F)F)c4)cc3)c2cc1OC [Example 2, N-(4-((6,7-dimethoxyquinolin-4-yl)oxy)phenyl)-2-(4-chloro-3-(trifluoromethyl)phenyl)-acetamide]
- GI50 (TEL-KIT/S709F-BaF3): 17 nM
- GI50 (TEL-KIT/D816E-BaF3): 16 nM
- GI50 (TEL-KIT/D816H-BaF3): 97 nM
- GI50 (TEL-KIT/D820E-BaF3): 1 nM
- GI50 (TEL-KIT/A829P-BaF3): 22 nM
- GI50 (GIST-T1): 6 nM
- GI50 (GIST-T1/T670I): 11 nM
